Calls of active or inactive are those of the source.
Assays:
[1] = luciferase reporter signal suppression in cells – H4 neuroglioma cells, luminescence, dose response (AID 1990); type: functional, cell-based
[2] = biological target: FAD-linked sulfhydryl oxidase ALR (Homo sapiens, UniProt P55789); test: ALR-catalysed DTT oxidation blockers – biochemical, H2O2 detection, luminescence, cherry-pick, dose response (AID 493248)
Insulin-degrading enzyme = biological target: T1, Insulin-degrading enzyme (Homo sapiens, UniProt P14735); test: Dose Response: Fluorescence polarization-based cell-based high throughput dose response assay for inhibitors of insulin-degrading enzyme (IDE). [Related pubchem assays: 434962 (Primary screen (IDE inhibitors in singlicate)), 449730 (Counterscreen (Cytotoxicity in triplicate)), 435028 (Confirmation (IDE inhibitors in triplicate)), 434984 (Summary …; type: functional
T1 sequence (P14735 whole entry): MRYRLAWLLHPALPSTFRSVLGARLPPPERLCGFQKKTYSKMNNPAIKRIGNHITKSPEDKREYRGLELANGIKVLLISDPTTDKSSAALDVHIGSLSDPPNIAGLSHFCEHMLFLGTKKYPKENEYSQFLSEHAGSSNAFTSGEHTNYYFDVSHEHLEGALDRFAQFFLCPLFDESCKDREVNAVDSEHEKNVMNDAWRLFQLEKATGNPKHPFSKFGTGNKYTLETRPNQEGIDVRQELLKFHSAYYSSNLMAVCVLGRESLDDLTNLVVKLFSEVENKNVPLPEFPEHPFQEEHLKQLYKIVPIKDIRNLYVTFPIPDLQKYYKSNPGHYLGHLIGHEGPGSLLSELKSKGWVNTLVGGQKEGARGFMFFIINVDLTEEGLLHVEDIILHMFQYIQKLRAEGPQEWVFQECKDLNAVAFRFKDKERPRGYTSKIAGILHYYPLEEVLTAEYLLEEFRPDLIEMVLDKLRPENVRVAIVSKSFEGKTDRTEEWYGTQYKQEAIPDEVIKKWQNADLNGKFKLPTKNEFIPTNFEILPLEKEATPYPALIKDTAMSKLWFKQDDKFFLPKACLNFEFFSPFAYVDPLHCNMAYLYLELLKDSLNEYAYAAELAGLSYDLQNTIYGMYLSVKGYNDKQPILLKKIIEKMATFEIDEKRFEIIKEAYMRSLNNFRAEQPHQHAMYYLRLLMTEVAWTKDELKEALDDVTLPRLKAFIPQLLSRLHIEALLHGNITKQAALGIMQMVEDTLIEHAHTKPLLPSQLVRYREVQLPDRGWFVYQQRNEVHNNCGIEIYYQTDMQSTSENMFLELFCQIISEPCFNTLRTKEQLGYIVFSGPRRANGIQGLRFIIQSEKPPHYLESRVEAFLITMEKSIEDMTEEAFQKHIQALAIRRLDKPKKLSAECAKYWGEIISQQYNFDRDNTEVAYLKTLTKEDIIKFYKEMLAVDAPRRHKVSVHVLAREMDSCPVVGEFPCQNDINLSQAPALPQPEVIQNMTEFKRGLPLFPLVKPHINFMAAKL

[3] = biological target: T2, Heat shock factor protein 1 (Mus musculus, UniProt P38532); test: decrease of HSF1-responsive luciferase luminescence – cell-based, NIH3T3, dose retest, confirmation (AID 2382); type: functional;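 further: NIH3T3 fibroblasts with HSF1-driven luciferase reporter stressed by proteasome inhibitor MG132; luminescence from HSF1-driven luciferase expression after 8 hours of MG132 stress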
T2 sequence (P38532 whole entry): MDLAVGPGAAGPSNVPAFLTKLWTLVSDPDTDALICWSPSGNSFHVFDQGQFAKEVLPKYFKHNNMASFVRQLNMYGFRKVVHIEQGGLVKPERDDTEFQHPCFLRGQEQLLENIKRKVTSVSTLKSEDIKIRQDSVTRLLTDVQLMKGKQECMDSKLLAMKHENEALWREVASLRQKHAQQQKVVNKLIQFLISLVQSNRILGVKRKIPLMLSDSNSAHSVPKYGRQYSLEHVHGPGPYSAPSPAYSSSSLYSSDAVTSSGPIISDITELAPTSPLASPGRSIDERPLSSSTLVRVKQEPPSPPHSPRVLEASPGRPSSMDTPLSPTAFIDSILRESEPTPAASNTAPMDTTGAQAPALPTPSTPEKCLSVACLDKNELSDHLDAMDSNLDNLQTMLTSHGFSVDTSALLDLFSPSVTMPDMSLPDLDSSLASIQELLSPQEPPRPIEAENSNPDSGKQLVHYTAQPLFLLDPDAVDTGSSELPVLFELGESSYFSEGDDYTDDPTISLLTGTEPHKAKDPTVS

[4] = Counterscreen for IDE inhibitors: Luminescence-based cell-based high throughput dose response assay to identify compounds that are cytotoxic to HEK cells. [Related pubchem assays: 434962 (Primary screen (IDE inhibitors in singlicate)), 449730 (Counterscreen (Cytotoxicity in triplicate)), 435028 (Confirmation (IDE inhibitors in triplicate)) …; type: functional; conditions: HEK293
[5] = biological target: T3, Microphthalmia-associated transcription factor (Homo sapiens, UniProt O75030); test: reducers of TRPM1 reporter luminescence, concentration series – cell-based, SK-MEL-5, cherry-picked, set 3, MITF inhibitor project, dose response (AID 493073); type: functional;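 further: SK-MEL-5 melanoma cells with luciferase driven by the MITF target TRPM1 promoter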
T3 sequence (O75030 whole entry): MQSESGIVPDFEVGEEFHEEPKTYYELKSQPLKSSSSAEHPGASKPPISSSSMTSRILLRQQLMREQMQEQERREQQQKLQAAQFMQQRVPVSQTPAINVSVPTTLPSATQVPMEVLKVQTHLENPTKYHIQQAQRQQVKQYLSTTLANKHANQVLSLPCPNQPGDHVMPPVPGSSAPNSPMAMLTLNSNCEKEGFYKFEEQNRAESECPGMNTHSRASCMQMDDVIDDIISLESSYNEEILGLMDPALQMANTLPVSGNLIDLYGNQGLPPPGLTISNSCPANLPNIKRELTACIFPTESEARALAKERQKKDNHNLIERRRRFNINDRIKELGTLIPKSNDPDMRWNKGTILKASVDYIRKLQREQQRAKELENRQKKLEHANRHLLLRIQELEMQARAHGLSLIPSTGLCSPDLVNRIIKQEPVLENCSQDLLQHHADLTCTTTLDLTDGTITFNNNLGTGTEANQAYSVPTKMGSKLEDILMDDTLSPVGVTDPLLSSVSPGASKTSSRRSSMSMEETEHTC

[6] = alpha-synuclein stem-loop luciferase translation blockers – H4 neuroglioma cells, luminescence, confirmation (AID 1988); type: functional, cell-based
HEK293 [7] = test: inhibition of NOD1-driven NF-kB reporter – cell-based, luminescence, uHTS, primary screen (AID 1578); type: functional; conditions: Homo sapiens
HEK293 [8] = test: cells; type: functional, cell-based; conditions: Homo sapiens
[9] = biological target: Nucleotide-binding oligomerization domain-containing protein 2 (Homo sapiens, UniProt Q9HC29); test: inhibition of NOD2-driven NF-kB reporter – cell-based, luminescence, uHTS, HEK293 (AID 1566); type: functional
Chain of Nucleotide-binding oligomerization domain-containing protein 2 (Q9HC29 whole entry, the tested form may be a part): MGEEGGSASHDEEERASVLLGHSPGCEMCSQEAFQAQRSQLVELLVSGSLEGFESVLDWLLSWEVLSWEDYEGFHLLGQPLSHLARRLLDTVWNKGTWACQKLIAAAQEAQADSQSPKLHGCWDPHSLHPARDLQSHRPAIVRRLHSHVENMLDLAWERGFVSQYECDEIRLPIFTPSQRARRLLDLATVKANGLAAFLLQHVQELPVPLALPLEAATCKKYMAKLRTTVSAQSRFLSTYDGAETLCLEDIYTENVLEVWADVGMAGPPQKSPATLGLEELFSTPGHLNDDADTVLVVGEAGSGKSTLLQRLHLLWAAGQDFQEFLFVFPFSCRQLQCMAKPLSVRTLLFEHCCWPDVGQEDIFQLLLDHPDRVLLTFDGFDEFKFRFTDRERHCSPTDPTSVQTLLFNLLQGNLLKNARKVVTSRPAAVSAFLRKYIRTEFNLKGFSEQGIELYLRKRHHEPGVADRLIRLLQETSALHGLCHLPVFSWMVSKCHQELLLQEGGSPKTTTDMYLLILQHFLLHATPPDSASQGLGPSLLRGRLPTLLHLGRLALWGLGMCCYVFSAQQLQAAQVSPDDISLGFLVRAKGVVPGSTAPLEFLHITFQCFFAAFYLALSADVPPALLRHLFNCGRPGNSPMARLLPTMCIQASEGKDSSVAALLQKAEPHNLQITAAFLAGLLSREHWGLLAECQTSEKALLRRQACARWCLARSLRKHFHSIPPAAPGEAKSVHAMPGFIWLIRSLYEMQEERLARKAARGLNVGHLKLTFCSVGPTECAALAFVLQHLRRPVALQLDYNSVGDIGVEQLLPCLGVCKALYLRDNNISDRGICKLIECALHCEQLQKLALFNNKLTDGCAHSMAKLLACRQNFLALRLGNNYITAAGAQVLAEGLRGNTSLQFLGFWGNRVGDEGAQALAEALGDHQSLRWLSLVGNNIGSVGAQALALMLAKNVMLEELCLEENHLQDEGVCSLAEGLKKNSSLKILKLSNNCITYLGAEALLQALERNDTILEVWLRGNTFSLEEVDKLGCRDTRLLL

HEK293 [10] = test: cells; type: functional, cell-based; conditions: Homo sapiens; remark: listed apart in the source
HEK293 [11] = test: cells; type: functional, cell-based; conditions: Homo sapiens; remark: listed apart in the source
HEK293 [12] = test: NOD2 signaling inhibitors in MDP-stimulated cells, cell-based, uHTS, luminescence (AID 2001); type: functional; conditions: Homo sapiens
Cytochrome P450 2C9 = Cytochrome P450 2C9 (Homo sapiens, UniProt P11712)
Chain of Cytochrome P450 2C9 (P11712 whole entry): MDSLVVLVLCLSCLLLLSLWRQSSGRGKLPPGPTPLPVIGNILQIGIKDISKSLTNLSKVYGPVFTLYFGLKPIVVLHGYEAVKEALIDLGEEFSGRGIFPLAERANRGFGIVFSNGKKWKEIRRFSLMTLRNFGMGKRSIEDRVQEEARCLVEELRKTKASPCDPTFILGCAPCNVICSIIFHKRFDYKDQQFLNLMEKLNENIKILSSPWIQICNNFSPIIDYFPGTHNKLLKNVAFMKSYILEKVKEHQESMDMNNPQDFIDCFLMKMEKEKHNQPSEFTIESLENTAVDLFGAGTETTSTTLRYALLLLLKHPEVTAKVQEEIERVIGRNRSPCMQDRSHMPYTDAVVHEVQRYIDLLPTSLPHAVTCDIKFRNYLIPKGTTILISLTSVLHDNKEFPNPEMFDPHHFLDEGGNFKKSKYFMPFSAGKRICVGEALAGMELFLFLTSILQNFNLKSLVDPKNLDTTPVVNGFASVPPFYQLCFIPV

[13] = biological target: T4, Short transient receptor potential channel 4 (Mus musculus, UniProt Q9QUQ5); test: block of DAMGO-driven TRPC4 calcium entry – cell-based, HEK293 TRPC4/mu-opioid, Fluo-4 calcium, dose response (AID 434942); type: functional;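 further: potency of inhibitors blocking the TRPC4 calcium response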
T4 sequence (Q9QUQ5 whole entry): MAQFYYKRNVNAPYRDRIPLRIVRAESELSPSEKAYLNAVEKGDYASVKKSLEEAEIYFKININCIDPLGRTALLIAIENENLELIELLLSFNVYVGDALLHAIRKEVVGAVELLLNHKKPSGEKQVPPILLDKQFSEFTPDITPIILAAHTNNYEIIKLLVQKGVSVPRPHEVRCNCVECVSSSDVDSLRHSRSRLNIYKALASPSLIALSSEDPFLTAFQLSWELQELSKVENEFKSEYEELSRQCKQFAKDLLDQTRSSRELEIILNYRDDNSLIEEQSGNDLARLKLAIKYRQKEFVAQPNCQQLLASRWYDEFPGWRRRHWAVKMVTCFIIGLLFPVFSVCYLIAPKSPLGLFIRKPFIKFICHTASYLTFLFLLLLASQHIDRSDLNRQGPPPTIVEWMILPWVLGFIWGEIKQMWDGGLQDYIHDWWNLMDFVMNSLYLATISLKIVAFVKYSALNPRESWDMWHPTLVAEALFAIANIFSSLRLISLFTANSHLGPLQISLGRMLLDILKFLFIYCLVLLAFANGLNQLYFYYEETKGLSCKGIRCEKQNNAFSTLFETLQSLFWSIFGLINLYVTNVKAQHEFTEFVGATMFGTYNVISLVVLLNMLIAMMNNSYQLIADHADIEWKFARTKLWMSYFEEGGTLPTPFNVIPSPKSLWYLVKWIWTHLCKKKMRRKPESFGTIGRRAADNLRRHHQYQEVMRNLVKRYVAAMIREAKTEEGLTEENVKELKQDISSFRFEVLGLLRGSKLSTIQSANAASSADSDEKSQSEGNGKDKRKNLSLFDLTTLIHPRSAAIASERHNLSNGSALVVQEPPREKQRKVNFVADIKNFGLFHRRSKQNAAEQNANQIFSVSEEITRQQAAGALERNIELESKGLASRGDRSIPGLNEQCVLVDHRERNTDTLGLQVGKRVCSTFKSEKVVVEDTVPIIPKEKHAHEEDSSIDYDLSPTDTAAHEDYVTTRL

Cytochrome P450 3A4 = Cytochrome P450 3A4 (Homo sapiens, UniProt P08684); conditions: Potency;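 further: confirmatory qHTS run detecting inhibitors and substrates of CYP3A4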
Chain of Cytochrome P450 3A4 (P08684 whole entry): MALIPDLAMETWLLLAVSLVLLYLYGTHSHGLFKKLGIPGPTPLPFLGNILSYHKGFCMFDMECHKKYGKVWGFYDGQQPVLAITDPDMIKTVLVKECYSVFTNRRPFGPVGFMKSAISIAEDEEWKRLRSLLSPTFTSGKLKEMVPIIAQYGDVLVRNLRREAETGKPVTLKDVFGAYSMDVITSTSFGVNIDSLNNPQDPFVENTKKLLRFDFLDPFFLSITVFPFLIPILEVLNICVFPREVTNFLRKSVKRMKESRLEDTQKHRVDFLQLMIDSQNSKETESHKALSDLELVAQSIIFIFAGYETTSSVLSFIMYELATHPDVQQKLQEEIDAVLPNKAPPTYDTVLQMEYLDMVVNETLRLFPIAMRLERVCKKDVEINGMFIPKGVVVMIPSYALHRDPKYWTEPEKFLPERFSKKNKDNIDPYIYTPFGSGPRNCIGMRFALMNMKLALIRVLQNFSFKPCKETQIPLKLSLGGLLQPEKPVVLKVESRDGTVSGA

[14] = biological target: Glyceraldehyde-3-phosphate dehydrogenase (Homo sapiens, UniProt P04406)
Chain of Glyceraldehyde-3-phosphate dehydrogenase (P04406 whole entry): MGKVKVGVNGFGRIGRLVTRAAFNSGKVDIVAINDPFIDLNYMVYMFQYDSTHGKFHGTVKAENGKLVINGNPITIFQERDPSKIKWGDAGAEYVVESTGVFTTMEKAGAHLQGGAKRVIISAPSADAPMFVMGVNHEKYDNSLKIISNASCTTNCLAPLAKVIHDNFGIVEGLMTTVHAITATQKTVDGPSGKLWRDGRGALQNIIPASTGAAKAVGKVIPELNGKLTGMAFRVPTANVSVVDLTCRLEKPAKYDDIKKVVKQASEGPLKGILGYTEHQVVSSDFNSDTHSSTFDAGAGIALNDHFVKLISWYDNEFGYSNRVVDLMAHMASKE

cells [15] = type: functional, cell-based
cells [16] = type: functional, cell-based; remark: listed apart in the source

Chain of FAD-linked sulfhydryl oxidase ALR (P55789 whole entry): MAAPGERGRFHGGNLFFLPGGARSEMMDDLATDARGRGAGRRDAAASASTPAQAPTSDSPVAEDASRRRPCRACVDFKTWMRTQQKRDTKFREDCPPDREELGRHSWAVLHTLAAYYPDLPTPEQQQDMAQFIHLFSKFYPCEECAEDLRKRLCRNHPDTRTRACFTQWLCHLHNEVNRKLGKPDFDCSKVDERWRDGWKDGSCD

Structure (SMILES): CN(C)c1ccc(/C=C2\SC(=O)N(CCc3nnc(N)s3)C2=O)cc1
- EC50 [1]: 8.39 µM (inconclusive)
- AC50 [2]: 1.87 µM (active)
- IC50 (Insulin-degrading enzyme): > 55.9 µM (not active)
- EC50 [3]: 6.52 µM (inconclusive)
- IC50 [4]: 47.8 µM (not active)
- AC50 [5]: 2.54 µM (active)
- EC50 [6]: 4.74 µM (active)

Structure (SMILES): O=C(Nc1ccc(Cl)cn1)c1ccc(Br)c(S(=O)(=O)N2CCCCC2)c1
- EC50 (HEK293 [7]): 9.56 µM (active)
- IC50 (HEK293 [8]): 7.73 µM (active)
- EC50 [9]: > 20 µM (inactive)
- IC50 (HEK293 [10]): 18.7 µM (active)
- IC50 (HEK293 [11]): > 20 µM (inactive)
- IC50 (HEK293 [12]): 9.77 µM (active)

Structure (SMILES): O=S(=O)(CC(O)COc1ccccc1Cl)c1ccccc1 (configuration not stated)
- AC50 (Cytochrome P450 2C9): inconclusive

Structure (SMILES): COc1ccc(CNC(=O)c2ccc3ccccc3n2)cc1OC
- EC50 (HEK293 [7]): 7.83 µM (active)
- IC50 (HEK293 [8]): 14.5 µM (active)
- EC50 [9]: 11.7 µM (active)
- IC50 (HEK293 [10]): > 20 µM (inactive)
- IC50 (HEK293 [11]): > 20 µM (inactive)
- IC50 (HEK293 [12]): > 20 µM (inactive)

Structure (SMILES): O=C(c1cccc(C(F)(F)F)c1)C1CCCN(Cc2ccccc2O)C1 (configuration not stated)
- EC50 [13]: 2.37 µM (active)

Structure (SMILES): Cc1ccccc1CN1CCCC(C(=O)Nc2ccccc2Oc2cccnc2)C1 (configuration not stated)
- EC50 [13]: 5.31 µM (active)

Structure (SMILES): CC1CCc2c(sc3ncnc(SCC(=O)Nc4ccc(C(=O)O)cc4)c23)C1 (configuration not stated)
- EC50 [13]: 6.68 µM (active)

Structure (SMILES): CCCn1c(=O)c2ccccc2n2c(SCCOc3ccc(C)cc3)nnc12
- EC50 [13]: 1.68 µM (active)

Structure (SMILES): CN(C)C(=O)c1ccc(-n2nc(C(F)(F)F)c3c2CCCC3)cc1
- AC50 (Cytochrome P450 2C9): inconclusive

Structure (SMILES): CC(C(=O)O)c1ccc(N2Cc3ccccc3C2=O)cc1 (configuration not stated) [INDOPROFEN]
- AC50 (Cytochrome P450 3A4): 39.8 µM (inconclusive)

Structure (SMILES): COCC(C)n1c(C)cc(C(=O)COc2ccc(C)nc2[N+](=O)[O-])c1C (configuration not stated)
- EC50 (HEK293 [7]): > 20 µM (inactive)
- IC50 (HEK293 [8]): 6.88 µM (active)
- EC50 [9]: 16.7 µM (active)
- IC50 (HEK293 [10]): > 20 µM (inactive)
- IC50 (HEK293 [11]): > 20 µM (inactive)
- IC50 (HEK293 [12]): > 20 µM (inactive)

Structure (SMILES): O=C(O)c1ccc(OCc2ccc(C(=O)O)o2)cc1
- IC50 [14]: > 100 µM (not active)

Structure (SMILES): O=C1CN=C(Nc2cccc(C(F)(F)F)c2)N1C1CCCC1
- EC50 [13]: 6.68 µM (active)

Structure (SMILES): COc1cc(-c2oc3cc(O)ccc3c(=O)c2O)ccc1O [GERALDOL]
- AC50 (Cytochrome P450 3A4): 10 µM (inconclusive)

Structure (SMILES): CNC(=O)N(C)c1nnc(C(C)(C)C)s1 [TEBUTHIURON]
- AC50 (Cytochrome P450 3A4): 12.6 µM (inconclusive)

Structure (SMILES): O=C(O)c1ccc2cccc(O)c2n1
- EC50 (cells [15]): > 350 µM (not active)
- EC50 (cells [16]): > 350 µM (not active)
- IC50 [14]: > 100 µM (not active)

Structure (SMILES): Cc1ccc(NC(=O)Cc2cc(C(=O)O)c3ccccc3n2)c(C)c1
- EC50 (HEK293 [7]): 7.04 µM (active)
- IC50 (HEK293 [8]): 11.7 µM (active)
- EC50 [9]: 6.77 µM (active)
- IC50 (HEK293 [10]): > 20 µM (inactive)
- IC50 (HEK293 [11]): > 20 µM (inactive)
- IC50 (HEK293 [12]): 8.76 µM (inactive)

Structure (SMILES): COc1ccccc1-c1oc2ccccc2c(=O)c1OC
- AC50 (Cytochrome P450 3A4): 20 µM (inconclusive)

Structure (SMILES): COc1ccccc1-c1nc(C#N)c(N2CCN(c3cccc(Cl)c3)CC2)o1
- EC50 (HEK293 [7]): 8.65 µM (active)
- IC50 (HEK293 [8]): 18.5 µM (active)
- EC50 [9]: 11.2 µM (active)
- IC50 (HEK293 [10]): > 20 µM (inactive)
- IC50 (HEK293 [11]): > 20 µM (inactive)
- IC50 (HEK293 [12]): 17.4 µM (inactive)

From ChEMBL document CHEMBL1201862, “PubChem BioAssay data set” (2004)
